In patent US20080009435A1, “Synthetic methods for aplidine and new antitumoral derivatives, methods of making and using them” (Pharma Mar, S.A., a Spain corporation, priority 2000, published 2008):
Like-named read-outs stand apart in the source and are kept apart here. *1 amine or outer side, *2 acyl side, *3 side chain or, on linkers, in order; H or OH if unused. Where a SMILES comes first, the peptide text is derived from it. Bridges are numbered along the chain shown (N, C = ends). [ ]: non-standard residue; d: D form. The star is where a group is joined. ξ: configuration not given here. X1 = CC[C@H](C)[C@@H](N[*:1])[C@@H](O)CC(=O)O[C@H](C(=O)[C@H](C)C(=O)[*:2])C(C)C; X2 = CC[C@H](C)[C@@H](N[*:1])[C@@H](O)CC(=O)[*:2]; X3 = C[C@H](O[Si](C)(C)C(C)(C)C)C(=O)*; NMeY = CN[C@@H](Cc1ccc(O)cc1)C(=O)O; dNMeL = CN[C@H](CC(C)C)C(=O)O; Hiv = CC(C)[C@H](O)C(=O)O; Isobutyryl = CC(C)C(=O)*; dLac = C[C@@H](O)C(=O)O; Cbz = O=C(OCc1ccccc1)*; Boc = CC(C)(C)OC(=O)*; Lac = C[C@H](O)C(=O)O; X5 = S=C(Nc1ccccc1)*; ξP = O=C(O)C1CCCN1

Columns and labels:
[1] = test system: HT-29 human colon carcinoma; experiment: Cytotoxicity IC50 (after Berjeron et al)
Description: (§1) Methodology: after Berjeron et al, Biochem and Bioph Res. Comm., 1984, 121, 3, 848-854.

[2] = test system: A549 human lung carcinoma; experiment: Cytotoxicity IC50 (after Berjeron et al)
Description: as §1

MEL-28 human melanoma = experiment: Cytotoxicity IC50 (after Berjeron et al)
Description: as §1

P388 Murine lymphoma = experiment: Cytotoxicity IC50 (after Berjeron et al)
Description: as §1

[3] = test system: DU145 human prostate carcinoma; experiment: Cytotoxicity IC50 (after Berjeron et al); assay type: cell-based
Description: P388=Murine lymphoma. A549=human lung carcinoma. HT-29=human colon carcinoma. MEL-28=human melanoma. DU145=human prostate carcinoma
Chem. 2000, 65, 782-792. Their synthesis was published before their discovery (l): Org. […] A549=human lung carcinoma. HT-29=human colon carcinoma. MEL-28=human melanoma. DU145=human prostate carcinoma

tumor cells = experiment: In vitro antitumor activity; assay type: cell-based
[4] = read-out: Cytotoxicity of aplidine derivatives IC50 (Molar) HT29, HT29
[5] = read-out: Cytotoxicity of aplidine derivatives IC50 (Molar) A549, A549
[6] = read-out: Cytotoxicity of aplidine derivatives IC50 (Molar) MEL28, MEL28
[7] = read-out: Cytotoxicity of aplidine derivatives IC50 (Molar) P388, P388
[8] = DU145, read-out: Cytotoxicity of aplidine derivatives IC50 (Molar) DU145
[9] = Homo sapiens, HT-29, read-out: Cytotoxicity of aplidine derivatives IC50 (Molar) HT29
[10] = Homo sapiens, A549, read-out: Cytotoxicity of aplidine derivatives IC50 (Molar) A549
[11] = Homo sapiens, SK-MEL-28, read-out: Cytotoxicity of aplidine derivatives IC50 (Molar) MEL28
[12] = Mus musculus, P388, read-out: Cytotoxicity of aplidine derivatives IC50 (Molar) P388

Row | Molecule | IC50 [1, 9] [nM] | IC50 [2, 10] [nM] | further results
1 | [Hiv]^3 Z-Didemnin A [SHPL3] | – | – | IC50 [1, 4]: 4.9 nM; IC50 [2, 5]: 4.9 nM; IC50 (MEL-28 human melanoma; [6]): 4.9 nM; IC50 (P388 Murine lymphoma; [7]): 4.9 nM; IC50 [3, 8]: 4.9 nM
2 | [MeVal]^3-aplidine | – | – | in vitro antitumor activity (tumor cells): high level of in vitro antitumor activity
3 | [ZNVa-Pro]^9-aplidine [9NVSAPL2] | – | – | IC50 [1, 4]: 3.93 nM; IC50 [2, 5]: 3.93 nM; IC50 (MEL-28 human melanoma; [6]): 3.93 nM; IC50 (P388 Murine lymphoma; [7]): 7.9 nM; IC50 [3, 8]: 3.93 nM
4 | [Val]^3 Z-Didemnin A [SVPL3] | – | – | IC50 [1, 4]: 0.98 nM; IC50 [2, 5]: 0.98 nM; IC50 (MEL-28 human melanoma; [6]): 0.98 nM; IC50 (P388 Murine lymphoma; [7]): 0.98 nM; IC50 [3, 8]: 0.98 nM
5 | CC[C@H](C)[C@H]1NC(=O)[C@@H](NC(=O)[C@@H](CC(C)C)N(C)C(=O)OCc2ccccc2)[C@@H](C)OC(=O)[C@H](Cc2ccc(OC)cc2)N(C)C(=O)[C@@H]2CCCN2C(=O)[C@H](CC(C)C)NC(=O)[C@@H](C)C(=O)[C@H](C(C)C)OC(=O)C[C@@H]1O [SAPL3, Z-Didemnin A] (Cbz-[dNMeL]T[X1]LP[NMeY](Me); ester 2-C) | 4.64 | 2.32 | IC50 (MEL-28 human melanoma; [11]): 4.64 nM; IC50 (P388 Murine lymphoma; [12]): 9.3 nM
6 | CC[C@H](C)[C@H]1NC(=O)[C@@H](NC(=O)[C@@H](CC(C)C)NC)[C@@H](C)OC(=O)[C@H](Cc2ccc(OC)cc2)N(C)C(=O)[C@@H]2CCCN2C(=O)[C@H](CC(C)C)NC(=O)[C@H](C(C)C)NC(=O)C[C@@H]1O [SVPL2, [Val]^3-Didemnin A] (H-[dNMeL]T[X2]VLP[NMeY](Me); ester 2-C) | 1.13 | 1.13 | IC50 (MEL-28 human melanoma; [11]): 1.13 nM; IC50 (P388 Murine lymphoma; [12]): 1.1 nM; IC50 ([3]; Homo sapiens, DU-145, read-out: Cytotoxicity of aplidine derivatives IC50 (Molar) DU145): 1.13 nM
7 | CC[C@H](C)[C@H]1NC(=O)[C@@H](NC(=O)[C@@H](CC(C)C)N(C)C(=O)C2CCCN2C(=O)[C@H](C)O[Si](C)(C)C(C)(C)C)[C@@H](C)OC(=O)[C@H](Cc2ccc(OC)cc2)N(C)C(=O)[C@@H]2CCCN2C(=O)[C@H](CC(C)C)NC(=O)[C@H](C(C)C)NC(=O)C[C@@H]1O (stereo partly drawn) [9LSVPL2(L), [Val]^3-[L-Lac(OTBDMS)]^9-aplidine] (X3-[ξP][dNMeL]T[X2]VLP[NMeY](Me); ester 3-C) | 8.55 | 10.2 | –
8 | CC[C@H](C)[C@H]1NC(=O)[C@@H](NC(=O)[C@@H](CC(C)C)N(C)C(=O)C(C)C)[C@@H](C)OC(=O)[C@H](Cc2ccc(OC)cc2)N(C)C(=O)[C@@H]2CCCN2C(=O)[C@H](CC(C)C)NC(=O)[C@H](C(C)C)NC(=O)C[C@@H]1O [8ISVPL1, [Val]^3-[Isobutyryl]^8-didemnin A] (Isobutyryl-[dNMeL]T[X2]VLP[NMeY](Me); ester 2-C) | 0.105 | 0.105 | –
9 | CC[C@H](C)[C@H]1NC(=O)[C@@H](NC(=O)[C@@H](CC(C)C)NC)[C@@H](C)OC(=O)[C@H](Cc2ccc(OC)cc2)N(C)C(=O)[C@@H]2CCCN2C(=O)[C@H](CC(C)C)NC(=O)[C@H](C(C)C)OC(=O)C[C@@H]1O [SHPL2, [Hiv]^3-Didemnin A] (H-[dNMeL]T[X2][Hiv]LP[NMeY](Me); ester 2-C) | 1.13 | 1.13 | IC50 (MEL-28 human melanoma; [11]): 1.13 nM; IC50 (P388 Murine lymphoma; [12]): 1.1 nM
10 | CC[C@H](C)[C@H]1NC(=O)[C@@H](NC(=O)[C@@H](CC(C)C)N(C)C(=O)C2CCCN2C(=O)[C@@H](C)O)[C@@H](C)OC(=O)[C@H](Cc2ccc(OC)cc2)N(C)C(=O)[C@@H]2CCCN2C(=O)[C@H](CC(C)C)NC(=O)[C@H](C(C)C)OC(=O)C[C@@H]1O (stereo partly drawn) [9LSHPL1(D), [Hiv]^3-[D-Lac]^9-aplidine] (H-[dLac][ξP][dNMeL]T[X2][Hiv]LP[NMeY](Me); ester 4-C) | 0.947 | 0.947 | –
11 | CC[C@H](C)[C@H]1NC(=O)[C@@H](NC(=O)[C@@H](CC(C)C)N(C)C(=S)Nc2ccccc2)[C@@H](C)OC(=O)[C@H](Cc2ccc(OC)cc2)N(C)C(=O)[C@@H]2CCCN2C(=O)[C@H](CC(C)C)NC(=O)[C@@H](C)C(=O)[C@H](C(C)C)OC(=O)C[C@@H]1O [8PTSAPL1, [Pheylthiourea]^8-didemnin A] (X5-[dNMeL]T[X1]LP[NMeY](Me); ester 2-C) | 0.927 | 0.927 | –
12 | CC[C@H](C)[C@H]1NC(=O)[C@@H](NC(=O)[C@@H](CC(C)C)N(C)C(=O)[C@@H]2CCCN2C(=O)C(C)C)[C@@H](C)OC(=O)[C@H](Cc2ccc(OC)cc2)N(C)C(=O)[C@@H]2CCCN2C(=O)[C@H](CC(C)C)NC(=O)[C@H](C(C)C)NC(=O)C[C@@H]1O [9ISVPL1, [Val]^3-[Isobutyryl]^9-aplidine] (Isobutyryl-P[dNMeL]T[X2]VLP[NMeY](Me); ester 3-C) | 0.475 | 0.475 | –
13 | [Hiv]^3-[D-Lac(OTBDMS)]^9-aplidine [9LSHPL2(D)] | – | – | IC50 [1, 4]: 85.5 nM; IC50 [2, 5]: 85.5 nM
14 | CC[C@H](C)[C@H]1NC(=O)[C@@H](NC(=O)[C@@H](CC(C)C)N(C)C(=O)[C@@H]2CCCN2C(=O)C(C)C)[C@@H](C)OC(=O)[C@H](Cc2ccc(OC)cc2)N(C)C(=O)[C@@H]2CCCN2C(=O)[C@H](CC(C)C)NC(=O)[C@H](C(C)C)OC(=O)C[C@@H]1O [9ISHPL1, [Hiv]^3-[Isobutyryl]^9-aplidine] (Isobutyryl-P[dNMeL]T[X2][Hiv]LP[NMeY](Me); ester 3-C) | 0.474 | 0.474 | –
15 | CC[C@H](C)[C@H]1NC(=O)[C@@H](NC(=O)[C@@H](CC(C)C)N(C)C(=O)[C@@H]2CCCN2C(=O)[C@H](C)NC(=O)OC(C)(C)C)[C@@H](C)OC(=O)[C@H](Cc2ccc(OC)cc2)N(C)C(=O)[C@@H]2CCCN2C(=O)[C@H](CC(C)C)NC(=O)[C@H](C(C)C)OC(=O)C[C@@H]1O [9BASHPL2, [Hiv]^3-[Boc-Ala]^9-aplidine] (Boc-AP[dNMeL]T[X2][Hiv]LP[NMeY](Me); ester 4-C) | 8.65 | 8.65 | –
16 | CC[C@H](C)[C@H]1NC(=O)[C@@H](NC(=O)[C@@H](CC(C)C)N(C)C(=O)[C@@H](N)C(C)C)[C@@H](C)OC(=O)[C@H](Cc2ccc(OC)cc2)N(C)C(=O)[C@@H]2CCCN2C(=O)[C@H](CC(C)C)NC(=O)[C@H](C(C)C)OC(=O)C[C@@H]1O [8VSHPL1, [Hiv]^3-[Val]^8-didemnin A] (H-V[dNMeL]T[X2][Hiv]LP[NMeY](Me); ester 3-C) | 1.01 | 1.01 | –
17 | CC[C@H](C)[C@H]1NC(=O)[C@@H](NC(=O)[C@@H](CC(C)C)N2CC[C@]3(CCCN3C(=O)OC(C)(C)C)C2=O)[C@@H](C)OC(=O)[C@H](Cc2ccc(OC)cc2)N(C)C(=O)[C@@H]2CCCN2C(=O)[C@H](CC(C)C)NC(=O)[C@H](C(C)C)OC(=O)C[C@@H]1O [9SBSHPL1] | 4.56 | 4.56 | –
18 | CC[C@H](C)[C@H]1NC(=O)[C@@H](NC(=O)[C@@H](CC(C)C)N(C)C(=O)C2CCCN2C(=O)[C@H](C)O)[C@@H](C)OC(=O)[C@H](Cc2ccc(OC)cc2)N(C)C(=O)[C@@H]2CCCN2C(=O)[C@H](CC(C)C)NC(=O)[C@H](C(C)C)NC(=O)C[C@@H]1O (stereo partly drawn) [9LSVPL1(L), [Val]^3-[L-Lac]^9-aplidine] (H-[Lac][ξP][dNMeL]T[X2]VLP[NMeY](Me); ester 4-C) | 0.948 | 0.948 | –
19 | CC[C@H](C)[C@H]1NC(=O)[C@@H](NC(=O)[C@@H](CC(C)C)NC)[C@@H](C)OC(=O)[C@H](Cc2ccc(OC)cc2)N(C)C(=O)[C@@H]2CCCN2C(=O)[C@H](CC(C)C)NC(=O)[C@@H](C)C(=O)[C@H](C(C)C)OC(=O)C[C@@H]1O [SAPL2, Didemnin A, reference compound] (H-[dNMeL]T[X1]LP[NMeY](Me); ester 2-C) | 8.48 | 4.24 | IC50 (MEL-28 human melanoma; [11]): 1.13 nM; IC50 (P388 Murine lymphoma; [12]): 5.3 nM
20 | CC[C@H](C)[C@H]1NC(=O)[C@@H](NC(=O)[C@@H](CC(C)C)N2CC[C@]3(CCCN3C(=O)C(C)C)C2=O)[C@@H](C)OC(=O)[C@H](Cc2ccc(OC)cc2)N(C)C(=O)[C@@H]2CCCN2C(=O)[C@H](CC(C)C)NC(=O)[C@@H](C)C(=O)[C@H](C(C)C)OC(=O)C[C@@H]1O [9SISAPL1, [(5R)-1-(isobutiryl)-7-[(R)-1-carboxy-3-methylbutyl]-6-oxo-1,7-diazaspiro[4,4]nonane]^7-9-Aplidine] | 89.1 | 89.1 | –
21 | CC[C@H](C)[C@H]1NC(=O)[C@@H](NC(=O)[C@@H](CC(C)C)N(C)C(=O)[C@@H](NC(=O)C(C)C)C(C)C)[C@@H](C)OC(=O)[C@H](Cc2ccc(OC)cc2)N(C)C(=O)[C@@H]2CCCN2C(=O)[C@H](CC(C)C)NC(=O)[C@H](C(C)C)OC(=O)C[C@@H]1O [8V9ISHPL1, [Hiv]^3-[Val]^8-[Isobutyryl]^9-didemnin A] (Isobutyryl-V[dNMeL]T[X2][Hiv]LP[NMeY](Me); ester 3-C) | 9.46 | 9.46 | –
22 | CC[C@H](C)[C@H]1NC(=O)[C@@H](NC(=O)[C@@H](CC(C)C)N(C)C(=O)C2CCCN2C(=O)[C@H](C)O)[C@@H](C)OC(=O)[C@H](Cc2ccc(OC)cc2)N(C)C(=O)[C@@H]2CCCN2C(=O)[C@H](CC(C)C)NC(=O)[C@H](C(C)C)OC(=O)C[C@@H]1O (stereo partly drawn) [9LSHPL1(L), [Hiv]^3-[L-Lac]^9-aplidine, reference compound] (H-[Lac][ξP][dNMeL]T[X2][Hiv]LP[NMeY](Me); ester 4-C) | 0.947 | 0.947 | –
23 | [Hiv]^3-[NVa-Pro]^9-aplidine [9NVSHPL1] | – | – | IC50 [1, 4]: 0.923 nM; IC50 [2, 5]: 0.923 nM
